Autophagy induction data for five molecules are collected here from ChEMBL document CHEMBL5724696, “Autophagy assay results for EUbOPEN Chemogenomics Library” (2024).

Structures are written as SMILES.

Test [1] has as its system U2OS. Description: (§1) Here: values are normalized to the negative (DMSO; defined as 0% autophagy induction) and positive (250nM Torin1; mTOR inhibitor; defined as maximal inducer of autophagy = 100%) control compounds and represented as % of autophagy induction. […] The impact of autophagy induction on cells is complex and depends on the affected target. As such, the magnitude of a phenotype may not be equally mirrored in the %-value of autophagy induction and vice versa. The dynamics of the induction may indicate the mode of activation: e.g. activation via phosphorylation or a signaling cascade may occur fast, while activation via transcription factors may take considerably longer. […] Of note, treatment concentrations may be sub-optimal for specific compounds, leading to false negative annotations. Format: functional, Homo sapiens. Particulars: Culturing Media DMEM, 1 % Penicillin/Streptomycin, 10% Fetal bovin serum Add-On: No, Screening Media Control DMEM, Screening Media Samples DMEM.

In test [2] the test system is U2OS. Described as §1. Conditions: Culturing Media DMEM, 1 % Penicillin/Streptomycin, 10% Fetal bovin serum Add-On: No, Screening Media Control DMEM, Screening Media Samples DMEM. Format: functional, Homo sapiens. The source holds these as a separate data set.
Setting [3] is: Compound Concentration 0.5 uM, Timepoint 12 hours.
Where [4] appears, read: Compound Concentration 0.5 uM, Timepoint 24 hours.
Where [5] appears, read: Compound Concentration 0.5 uM, Timepoint 36 hours.
The mark [6] stands for this setting: Compound Concentration 0.5 uM, Timepoint 60 hours.
The mark [7] stands for this setting: Compound Concentration 2 uM, Timepoint 12 hours.
[8] abbreviates: Compound Concentration 2 uM, Timepoint 24 hours.
Where [9] appears, read: Compound Concentration 2 uM, Timepoint 36 hours.
Where [10] appears, read: Compound Concentration 2 uM, Timepoint 60 hours.
The mark [11] stands for this setting: Compound Concentration 10 uM, Timepoint 12 hours.
Where [12] appears, read: Compound Concentration 10 uM, Timepoint 24 hours.
Setting [13] is: Compound Concentration 10 uM, Timepoint 36 hours.
Setting [14] is: Compound Concentration 10 uM, Timepoint 60 hours.

`CC(C)(N)C(=O)N[C@H](COCc1ccccc1)C(=O)N1CCC2(CC1)CN(S(C)(=O)=O)c1ccccc12.CS(=O)(=O)O` [IBUTAMOREN MESYLATE]: the autophagy induction is reported as -8.194% in the test with U2OS [1] (setting [3]); -5.824% in the test on U2OS [1] (setting [4]); -3.752% with U2OS [1] (setting [5]); 0.1138% in the test on U2OS [1] (setting [6]); -4.688% in the test with U2OS [1] (setting [7]); -1.11% in the test with U2OS [1] (setting [8]). Also, the autophagy induction in the test with U2OS [1] (setting [9]) is reported as 1.85%; with U2OS [1] (setting [10]), -0.8182%; with U2OS [1] (setting [11]), 7.887%; in the test with U2OS [1] (setting [12]), 2.743%; with U2OS [1] (setting [13]) it was 7.197%; with U2OS [1] (setting [14]), 14.096%. In addition, the autophagy induction with U2OS [2] (setting [3]) is 0.1513%; with U2OS [2] (setting [4]) it was -2.852%; in the test on U2OS [2] (setting [5]), -1.869%; in the test on U2OS [2] (setting [6]), 114.207%; with U2OS [2] (setting [7]), 2.232%; in the test on U2OS [2] (setting [8]) it was 1.174%. Also, the autophagy induction in the test on U2OS [2] (setting [9]) is listed as -0.1276%; in the test on U2OS [2] (setting [10]), 113.997%; with U2OS [2] (setting [11]), 21.0515%; in the test with U2OS [2] (setting [12]) it was 11.8835%; in the test with U2OS [2] (setting [13]), 9.457%; in the test on U2OS [2] (setting [14]) it was 114.001%.

On to `CCCCN(CC)c1nc(C)nc2c1c(C)cn2-c1c(C)cc(C)cc1C.Cl`, for which the autophagy induction with U2OS [1] (setting [3]) was found to be 18.6925%; in the test with U2OS [1] (setting [4]), 15.758%; with U2OS [1] (setting [5]), 10.5217%; in the test with U2OS [1] (setting [6]), 0.4484%; in the test on U2OS [1] (setting [7]), 10.9121%; in the test on U2OS [1] (setting [8]) it was 4.341%. The autophagy induction in the test with U2OS [1] (setting [9]) is listed as 5.091%; in the test on U2OS [1] (setting [10]), -0.08598%; in the test on U2OS [1] (setting [11]), 2.112%; in the test on U2OS [1] (setting [12]) it was -2.1052%; in the test on U2OS [1] (setting [13]), 3.327%; with U2OS [1] (setting [14]), 1.7732%. For the same molecule, the autophagy induction with U2OS [2] (setting [3]) is 2.677%; in the test with U2OS [2] (setting [4]), -1.508%; in the test with U2OS [2] (setting [5]), -1.584%; in the test on U2OS [2] (setting [6]) it was 114.355%; with U2OS [2] (setting [7]) it was 3.96%; with U2OS [2] (setting [8]), -1.673%. Besides, the autophagy induction in the test on U2OS [2] (setting [9]) is recorded as -1.59%; in the test with U2OS [2] (setting [10]) it was 114.358%; with U2OS [2] (setting [11]), -1.788%; with U2OS [2] (setting [12]), -2.669%; with U2OS [2] (setting [13]) it was -2.565%; in the test on U2OS [2] (setting [14]), 114.561%.

As to `O=C1O[C@]2(CC[C@H](C(=O)Nc3ccn(-c4ccccc4F)n3)CC2)c2cnccc21` [MK-0557], the autophagy induction is 2.719% in the test on U2OS [1] (setting [3]); -3.33% in the test on U2OS [1] (setting [4]); -1.0176% in the test on U2OS [1] (setting [5]); -10.434% in the test on U2OS [1] (setting [6]); 13.2836% with U2OS [1] (setting [7]); 10.9196% in the test with U2OS [1] (setting [8]). The autophagy induction in the test on U2OS [1] (setting [9]) is 6.623%; in the test on U2OS [1] (setting [10]), 2.549%; in the test with U2OS [1] (setting [11]) it was 4.4586%; in the test with U2OS [1] (setting [12]), 4.355%; in the test on U2OS [1] (setting [13]) it was 0.9374%; in the test on U2OS [1] (setting [14]) it was -12.6304%. The autophagy induction is 3.984% with U2OS [2] (setting [3]); 1.732% in the test with U2OS [2] (setting [4]); 0.4919% in the test with U2OS [2] (setting [5]); 114.165% in the test with U2OS [2] (setting [6]); 0.04111% with U2OS [2] (setting [7]); -0.7319% in the test with U2OS [2] (setting [8]). The autophagy induction in the test on U2OS [2] (setting [9]) is recorded as -2.648%; in the test on U2OS [2] (setting [10]), 114.407%; in the test with U2OS [2] (setting [11]), 2.947%; with U2OS [2] (setting [12]), -1.736%; in the test with U2OS [2] (setting [13]), -2.592%; in the test on U2OS [2] (setting [14]), 114.447%.

Turning to `COc1cc(-n2cnc3cc(-c4ccc(Cl)cc4)sc3c2=O)ccc1OCCN1CCCC1`, the autophagy induction with U2OS [1] (setting [3]) is listed as -1.171%; in the test with U2OS [1] (setting [4]), 2.823%; in the test on U2OS [1] (setting [5]) it was 1.029%; in the test on U2OS [1] (setting [6]), -2.152%; with U2OS [1] (setting [7]), -14.2965%; in the test with U2OS [1] (setting [8]), -7.54%. The autophagy induction in the test on U2OS [1] (setting [9]) is on record as -8.816%; in the test on U2OS [1] (setting [10]) it was -10.4701%; in the test with U2OS [1] (setting [11]) it was 7.721%; with U2OS [1] (setting [12]), 15.3334%; with U2OS [1] (setting [13]), 18.9257%; in the test on U2OS [1] (setting [14]) it was 17.8082%. Further, the autophagy induction is reported as 4.067% with U2OS [2] (setting [3]); -3.025% with U2OS [2] (setting [4]); -2.555% in the test on U2OS [2] (setting [5]); 114.356% with U2OS [2] (setting [6]); 0.09165% in the test with U2OS [2] (setting [7]); 1.732% in the test on U2OS [2] (setting [8]). Also, the autophagy induction in the test on U2OS [2] (setting [9]) is 0.6188%; with U2OS [2] (setting [10]), 114.522%; with U2OS [2] (setting [11]), -26.0106%; in the test with U2OS [2] (setting [12]), -13.6231%; in the test with U2OS [2] (setting [13]), -7.579%; with U2OS [2] (setting [14]), 114.809%.

Turning to `Cc1nc(C#Cc2ccnc(Cl)c2)c(C)n1-c1ccc(OC(F)(F)F)cc1`, the autophagy induction is given as 6.456% in the test on U2OS [1] (setting [3]); 5.383% in the test on U2OS [1] (setting [4]); 5.336% in the test on U2OS [1] (setting [5]); 1.571% in the test with U2OS [1] (setting [6]); -2.91% in the test with U2OS [1] (setting [7]); 2.407% in the test with U2OS [1] (setting [8]). In addition, the autophagy induction is recorded as -0.6644% in the test on U2OS [1] (setting [9]); -12.3758% with U2OS [1] (setting [10]); 2.059% in the test on U2OS [1] (setting [11]); 11.3882% in the test on U2OS [1] (setting [12]); 11.4393% in the test on U2OS [1] (setting [13]); 13.7118% with U2OS [1] (setting [14]). For the same molecule, the autophagy induction with U2OS [2] (setting [3]) is recorded as 6.745%; with U2OS [2] (setting [4]) it was 0.06808%; in the test on U2OS [2] (setting [5]), -1.509%; in the test on U2OS [2] (setting [6]), 114.498%; in the test on U2OS [2] (setting [7]) it was 7.139%; in the test with U2OS [2] (setting [8]), -0.173%. Moreover, the autophagy induction is on record as -1.142% in the test with U2OS [2] (setting [9]); 114.204% in the test with U2OS [2] (setting [10]); 1.1344% in the test with U2OS [2] (setting [11]); 2.694% in the test with U2OS [2] (setting [12]); 0.08816% in the test on U2OS [2] (setting [13]); 114.429% in the test on U2OS [2] (setting [14]).
